Values quoted from earlier work in patent US8148574B2, “Method for producing 5-aminolevulinic acid hydrochloride” (Cosmo Oil Co., Ltd., priority 2005, dated 2012).

Conditions: in water, at room temperature; depends on pH, temperature and coexisting solute

## Cl.NCC(=O)CCC(=O)O [5-aminolevulinic acid hydrochloride]
  solubility: ≥ 3000 mM
